In patent US8415469B2, “Compounds and methods for kinase modulation, and indications therefor” (Plexxikon Inc., priority 2005, dated 2013):

Key:
Assay type in all cases: biochemical
[1] = target: T1, Jnk2 (Homo sapiens, UniProt P45984); test: AlphaScreen kinase assay, Jnk2; settings: read-out: IC50, activity toward kinase Jnk2
T1 construct: purchased Roche Protein Expression Group (Indianapolis, IN)
Summary of the method: (§1)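 Peptide phosphorylation detected by proximity: streptavidin donor beads bind biotinylated substrate, acceptor beads carry antibody to phosphorylated substrate, singlet oxygen transfer gives emission. Dose-response over 8 points (1:3 steps); stocks 20 mM in DMSO.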

[2] = target: T2, Kdr (Homo sapiens, UniProt P35968); test: Z'-Lyte FRET kinase assay (Invitrogen), Kdr; settings: read-out: IC50, activity toward kinase Kdr
T2 construct: purchased Invitrogen (assay run by Invitrogen)

[3] = target: T3, Kit (Homo sapiens, UniProt P10721); test: AlphaScreen kinase assay, Kit; settings: read-out: IC50, activity toward kinase Kit
T3 construct: P1332.N6 BI PTP KIT M552-K948-X COD; His6 (N); made in house; host or cells: E. coli (PTP1B co-expressed)

[4] = target: T4, PKC theta (Homo sapiens, UniProt Q04759); test: Z'-Lyte FRET kinase assay (Invitrogen), PKC theta; settings: read-out: IC50, activity toward kinase PKC theta
T4 construct: purchased Invitrogen (Carlsbad, Calif.), screening service
From the text: The effect of potential modulators of kinase activity can be measured in a variety of different assays known in the art. For example, direct radiometric, indirect FRET or AlphaScreen assays may be used to assess the level of phosphorylation of a substrate in the presence of test compounds in order to determine the inhibitory affect of the compound on the kinase. Invitrogen (Carlsbad, Calif.) uses a FRET based assay for Btk, EGFR, EphB2, Flt3, lrak4, Kdr, MAP2K1, MAPKAPK2, PDGFRB, PKC theta, Stk6 and Yes. For these assays, compounds of the invention were screened by Invitrogen using Z′-Lyte™ kinase assay.
Briefly, the Invitrogen kinase assay involves use of a specific peptide substrate optimized for each kinase, containing a fluorophore at each end that make up the FRET pair. The peptide sensitivity to proteolytic cleavage depends on phosphorylation of the peptide. Non-phosphorylated peptide is cleaved by a protease while peptide phosphorylated by the kinase is not cleaved. Cleavage of the peptide disrupts the FRET between the donor (coumarin) and acceptor (fluorescein) fluorophores, resulting in an increase in the ratio of donor emission to acceptor emission. The emission ratio of coumarin to fluorescein is used to assess the reaction progress. The extent of phosphorylation is determined from the emission ratio, which is low when the kinase is active (phosphorylated peptide is not cleaved, FRET pair connected) or higher for inhibited kinase (non-phosphorylated peptide is cleaved, FRET pair separated). Thus, the assay involves a kinase reaction in the presence of varying concentrations of a given compound, a development reaction with site specific protease, and detection of the fluorescent emission ratio of coumarin and fluorscein. […] Reaction conditions for each kinase are determined to provide optimal reaction times, incubation temperature, kinase and ATP concentrations. Test samples are made up in 1× kinase buffer (50 mM HEPES pH 7.5, 50 mM MgCl2, 5 mM EGTA, 0.05% BRIJ-35) and compound at desired concentration prepared in DMSO such that the final DMSO is 1%. […] Typically, assay plates are prepared to 10 μl final volume per sample, adding 2.5 μl of compound at 4× the desired concentration in 4% DMSO (serial dilution of compound provides concentration curve), 5 μl of the desired kinase mixed with Z′-LYTE™ peptide substrate (2× in 2× kinase buffer, final peptide at 2 μM), and 2.5 μl of 4×ATP solution. All kinase except for MAP2K1 were at 10 μM ATP in the kinase reaction, while MAP2K1 was at 100 μM. Samples are mixed and the kinase reaction is incubated 1 hour at room temperature, after which 5 μl of development solution is added and mixed. After incubation for another 1 hour at room temperature, 5 μl of stop reagent is added to each sample and mixed. The fluorescence signals are measured to determine the emission ratio.

[5] = target: T5, Pyk2 (Homo sapiens, UniProt Q14289); test: AlphaScreen kinase assay, Pyk2; settings: read-out: IC50, activity toward kinase Pyk2
T5 construct: purchased Upstate Biotechnology

[6] = target: T6, Ret (Homo sapiens, UniProt P07949); test: AlphaScreen kinase assay, Ret; settings: read-out: IC50, activity toward kinase Ret
T6 construct: P1378.pET-SF BI-PTP RET H661-R1012 HIS; made in house
T6 sequence (P07949 with tags, fused parts or gaps): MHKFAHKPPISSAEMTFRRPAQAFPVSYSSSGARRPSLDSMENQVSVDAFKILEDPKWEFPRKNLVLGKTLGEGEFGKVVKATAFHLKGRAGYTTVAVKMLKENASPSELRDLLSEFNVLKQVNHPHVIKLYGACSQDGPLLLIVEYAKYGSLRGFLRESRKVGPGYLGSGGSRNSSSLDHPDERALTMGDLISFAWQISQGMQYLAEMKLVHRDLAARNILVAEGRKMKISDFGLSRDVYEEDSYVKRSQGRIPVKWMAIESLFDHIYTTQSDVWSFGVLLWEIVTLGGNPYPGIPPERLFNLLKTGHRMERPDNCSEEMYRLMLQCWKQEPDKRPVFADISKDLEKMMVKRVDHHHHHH

[7] = target: T7, Stk6 (Homo sapiens, UniProt O14965); test: Z'-Lyte FRET kinase assay (Invitrogen), Stk6; settings: read-out: IC50, activity toward kinase Stk6
T7 construct: purchased Invitrogen (Carlsbad, Calif.), screening service
T7 sequence (O14965 1-403): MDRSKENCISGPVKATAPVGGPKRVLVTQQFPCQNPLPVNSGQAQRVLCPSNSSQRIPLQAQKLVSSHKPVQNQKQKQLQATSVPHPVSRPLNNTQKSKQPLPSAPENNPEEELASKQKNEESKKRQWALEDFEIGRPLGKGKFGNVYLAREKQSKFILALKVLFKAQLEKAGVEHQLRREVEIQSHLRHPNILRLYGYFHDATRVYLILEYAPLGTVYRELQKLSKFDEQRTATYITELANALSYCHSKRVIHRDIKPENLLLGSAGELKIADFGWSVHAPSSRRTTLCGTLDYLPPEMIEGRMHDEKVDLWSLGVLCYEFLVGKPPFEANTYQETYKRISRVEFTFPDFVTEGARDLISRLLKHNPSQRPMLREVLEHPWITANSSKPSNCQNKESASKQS

[8] = target: MAP4K4 (Homo sapiens, UniProt O95819); test: AlphaScreen kinase assay, MAP4K4; settings: read-out: IC50, activity toward kinase MAP4K4
[9] = target: T8, Zap70 (Homo sapiens, UniProt P43403); test: AlphaScreen kinase assay, Zap70; settings: read-out: IC50, activity toward kinase Zap70
T8 construct: P1868.pFastBac1 ZAP70 D327-G606 HIS, WT; His7 (HHHHHHH) (C); made in house
T8 sequence (P43403 with tags, fused parts or gaps): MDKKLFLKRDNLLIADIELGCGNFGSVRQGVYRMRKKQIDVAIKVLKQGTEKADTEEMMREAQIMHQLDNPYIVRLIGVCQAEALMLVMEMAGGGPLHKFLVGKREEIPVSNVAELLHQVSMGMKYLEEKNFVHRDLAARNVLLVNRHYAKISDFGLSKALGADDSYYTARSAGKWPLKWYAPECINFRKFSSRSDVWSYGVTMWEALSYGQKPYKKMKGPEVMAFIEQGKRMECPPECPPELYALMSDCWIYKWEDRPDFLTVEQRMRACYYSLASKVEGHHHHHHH
Summary of the method: as §1

[10] = target: T9, B-Raf (Homo sapiens, UniProt P15056); test: AlphaScreen kinase assay, B-Raf; settings: read-out: IC50, activity toward kinase B-Raf
T9 construct: purchased Upstate Biotechnology

[11] = target: T10, B-Raf V600E (Homo sapiens, UniProt P15056, V600E); test: AlphaScreen kinase assay, B-Raf V600E; settings: read-out: IC50, activity toward kinase B-Raf V600E
T10 construct: P4254. pFastBacBD-CDC37 BRAF D437-K722-X, V600E; His6 with pFastBac HT leader (TEV site) (N); made in house; host or cells: Sf9 (baculovirus; chaperone CDC37 co-expressed)

[12] = target: T11, Btk (Homo sapiens, UniProt Q06187); test: Z'-Lyte FRET kinase assay (Invitrogen), Btk; settings: read-out: IC50, activity toward kinase Btk
T11 construct: purchased Invitrogen (assay run by Invitrogen)
From the text: For example, direct radiometric, indirect FRET or AlphaScreen assays may be used to assess the level of phosphorylation of a substrate in the presence of test compounds in order to determine the inhibitory affect of the compound on the kinase. […] For these assays, compounds of the invention were screened by Invitrogen using Z′-Lyte™ kinase assay.
Briefly, the Invitrogen kinase assay involves use of a specific peptide substrate optimized for each kinase, containing a fluorophore at each end that make up the FRET pair. The peptide sensitivity to proteolytic cleavage depends on phosphorylation of the peptide. Non-phosphorylated peptide is cleaved by a protease while peptide phosphorylated by the kinase is not cleaved. Cleavage of the peptide disrupts the FRET between the donor (coumarin) and acceptor (fluorescein) fluorophores, resulting in an increase in the ratio of donor emission to acceptor emission. The emission ratio of coumarin to fluorescein is used to assess the reaction progress. […] Thus, the assay involves a kinase reaction in the presence of varying concentrations of a given compound, a development reaction with site specific protease, and detection of the fluorescent emission ratio of coumarin and fluorscein. […] Reaction conditions for each kinase are determined to provide optimal reaction times, incubation temperature, kinase and ATP concentrations. Test samples are made up in 1× kinase buffer (50 mM HEPES pH 7.5, 50 mM MgCl2, 5 mM EGTA, 0.05% BRIJ-35) and compound at desired concentration prepared in DMSO such that the final DMSO is 1%. […] All kinase except for MAP2K1 were at 10 μM ATP in the kinase reaction, while MAP2K1 was at 100 μM. Samples are mixed and the kinase reaction is incubated 1 hour at room temperature, after which 5 μl of development solution is added and mixed. After incubation for another 1 hour at room temperature, 5 μl of stop reagent is added to each sample and mixed. The fluorescence signals are measured to determine the emission ratio.

[13] = target: T12, c-Raf-1 (Homo sapiens, UniProt P04049); test: AlphaScreen kinase assay, c-Raf-1; settings: read-out: IC50, activity toward kinase c-Raf-1
T12 construct: purchased Upstate Biotechnology

[14] = target: T13, Fak (Homo sapiens, UniProt Q05397); test: AlphaScreen kinase assay, Fak; settings: read-out: IC50, activity toward kinase Fak
T13 construct: P1358.pFastBacHtb FAK S411-Q686-X; His6 with pFastBacHTb leader (TEV site) (N); made in house; host or cells: Sf9 (baculovirus)

[15] = target: T14, FGFR1 (Homo sapiens, UniProt P11362, C488A/C584S); test: AlphaScreen kinase assay, FGFR1; settings: read-out: IC50, activity toward kinase FGFR
T14 construct: P1351.pET N6 BI-PTP FGFR A458-E765-X C488A, C584S; made in house; host or cells: E. coli (PTP1B co-expressed)

[16] = target: T15, Flt1 (Homo sapiens, UniProt P17948); test: AlphaScreen kinase assay, Flt1; settings: read-out: IC50, activity toward kinase Flt1
T15 construct: P1826.pETN6 BI-PTP FLT1 M799-D1165-X WT; His6 (N); made in house; host or cells: E. coli (PTP1B co-expressed)
T15 sequence (P17948 with tags, fused parts or gaps): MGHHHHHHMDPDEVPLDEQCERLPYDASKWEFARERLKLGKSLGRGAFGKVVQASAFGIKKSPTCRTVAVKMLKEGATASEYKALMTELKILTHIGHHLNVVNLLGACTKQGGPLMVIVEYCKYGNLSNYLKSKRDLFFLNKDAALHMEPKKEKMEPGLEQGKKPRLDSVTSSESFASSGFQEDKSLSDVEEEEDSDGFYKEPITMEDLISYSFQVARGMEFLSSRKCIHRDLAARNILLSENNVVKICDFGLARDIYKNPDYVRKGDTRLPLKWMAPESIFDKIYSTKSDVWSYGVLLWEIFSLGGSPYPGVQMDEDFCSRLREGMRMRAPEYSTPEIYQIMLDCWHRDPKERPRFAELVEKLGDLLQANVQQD

[17] = target: T16, Fms (Homo sapiens, UniProt P07333); test: AlphaScreen kinase assay, Fms; settings: read-out: IC50, activity toward kinase Fms
T16 construct: purchased Upstate Biotechnology

[18] = target: T17, Jnk1 (Homo sapiens, UniProt P45983); test: AlphaScreen kinase assay, Jnk1; settings: read-out: IC50, activity toward kinase Jnk1
T17 construct: purchased Upstate Biotechnology
From the text: AlphaScreen assay was used to screen additional kinases. The assay is similarly dependent on the phosphorylation of a peptide substrate. In this assay, an antibody that recognizes phosphorylated substrate is bound to an acceptor bead. The peptide substrate is attached to biotin, which binds to a donor head that contains streptavidin. Thus phosphorylated substrate is bound by antibody and streptavidin, bringing the donor and acceptor heads into close proximity when kinase is not inhibited. The donor produces singlet oxygen which results in emission from the acceptor when they are in close proximity. Conversely, when kinase is inhibited, the donor and acceptor beads are not associated and the emission from the acceptor is reduced.
AlphaScreen assays were done using compounds dissolved in DMSO to a concentration of 20 mM. The compounds were diluted accordingly to the desired final concentrations in each sample well, using 1:3 serial dilution for a total of 8 concentration points. Plates were prepared such that each kinase reaction is 20 μl in 1× kinase buffer, 5% DMSO and 10 μM ATP. After incubation of the kinase reaction for 1 hour at room temperature, 5 μl of donor beads in stop buffer (50 mM EDTA in 1× kinase buffer) was added, the sample was mixed and incubated for 20 minutes at room temperature before adding 5 μl of acceptor beads in stop buffer. The samples were incubated for 60 minutes at room temperature and the signal per well was read on AlphaQuest reader.

[19] = target: T18, Jnk3 (Homo sapiens, UniProt P53779); test: AlphaScreen kinase assay, Jnk3; settings: read-out: IC50, activity toward kinase Jnk3
T18 construct: purchased Upstate Biotechnology

[20] = target: T19, Src (Homo sapiens, UniProt P12931); test: AlphaScreen kinase assay, Src; settings: read-out: IC50, activity toward kinase Src
T19 construct: P1144. pET-N6 BI-PTP SRC V86-L536-X; made in house

[21] = target: T20, Yes (Homo sapiens, UniProt P07947); test: Z'-Lyte FRET kinase assay (Invitrogen), Yes; settings: read-out: IC50, activity toward kinase Yes
T20 construct: purchased Invitrogen (Carlsbad, Calif.), screening service
Summary of the method: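 Inhibition was inferred from protease cleavage of non-phosphorylated peptide, measured as a coumarin/fluorescein ratio. Kinase reactions used 10 μM ATP for 1 h at room temperature.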

[22] = target: Akt3 (Homo sapiens, UniProt Q9Y243); test: AlphaScreen kinase assay, Akt3; settings: read-out: IC50, activity toward kinase Akt3
Summary of the method: as §1

Measured: IC50

T2 sequence (P35968 20-1356): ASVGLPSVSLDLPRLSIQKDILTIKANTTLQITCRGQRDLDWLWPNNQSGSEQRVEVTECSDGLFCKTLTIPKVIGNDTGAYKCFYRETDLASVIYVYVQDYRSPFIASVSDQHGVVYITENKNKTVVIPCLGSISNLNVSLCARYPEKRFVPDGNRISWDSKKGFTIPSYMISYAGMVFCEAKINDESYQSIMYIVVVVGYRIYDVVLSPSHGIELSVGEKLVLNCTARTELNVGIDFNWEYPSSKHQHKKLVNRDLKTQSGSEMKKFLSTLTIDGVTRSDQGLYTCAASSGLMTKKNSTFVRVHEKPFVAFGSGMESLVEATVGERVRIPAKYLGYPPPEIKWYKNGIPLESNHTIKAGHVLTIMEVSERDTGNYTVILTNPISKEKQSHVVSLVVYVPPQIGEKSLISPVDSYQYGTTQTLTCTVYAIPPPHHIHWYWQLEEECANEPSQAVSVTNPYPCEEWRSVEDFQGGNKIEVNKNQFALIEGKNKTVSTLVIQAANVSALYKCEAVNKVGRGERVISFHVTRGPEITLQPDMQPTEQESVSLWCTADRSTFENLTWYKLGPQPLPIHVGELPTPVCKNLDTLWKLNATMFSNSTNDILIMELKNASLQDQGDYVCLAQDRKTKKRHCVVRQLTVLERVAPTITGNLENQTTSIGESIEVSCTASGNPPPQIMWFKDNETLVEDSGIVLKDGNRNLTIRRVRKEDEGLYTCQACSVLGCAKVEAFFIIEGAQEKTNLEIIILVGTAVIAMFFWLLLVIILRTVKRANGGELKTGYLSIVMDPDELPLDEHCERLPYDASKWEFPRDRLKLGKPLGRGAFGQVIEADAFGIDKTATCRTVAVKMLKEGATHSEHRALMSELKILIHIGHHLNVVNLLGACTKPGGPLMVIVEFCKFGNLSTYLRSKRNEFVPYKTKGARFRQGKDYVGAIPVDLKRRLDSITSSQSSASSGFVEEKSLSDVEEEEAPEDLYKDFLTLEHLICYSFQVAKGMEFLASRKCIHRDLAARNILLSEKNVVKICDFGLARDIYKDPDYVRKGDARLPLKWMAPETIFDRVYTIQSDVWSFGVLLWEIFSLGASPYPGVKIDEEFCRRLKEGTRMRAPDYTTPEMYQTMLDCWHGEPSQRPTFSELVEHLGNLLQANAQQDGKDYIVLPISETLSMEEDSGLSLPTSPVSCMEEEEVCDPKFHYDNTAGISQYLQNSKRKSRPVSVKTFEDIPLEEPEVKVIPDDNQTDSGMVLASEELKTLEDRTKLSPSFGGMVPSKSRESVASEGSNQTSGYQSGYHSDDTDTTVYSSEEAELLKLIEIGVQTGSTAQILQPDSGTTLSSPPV
T3 sequence (P10721 with tags, fused parts or gaps): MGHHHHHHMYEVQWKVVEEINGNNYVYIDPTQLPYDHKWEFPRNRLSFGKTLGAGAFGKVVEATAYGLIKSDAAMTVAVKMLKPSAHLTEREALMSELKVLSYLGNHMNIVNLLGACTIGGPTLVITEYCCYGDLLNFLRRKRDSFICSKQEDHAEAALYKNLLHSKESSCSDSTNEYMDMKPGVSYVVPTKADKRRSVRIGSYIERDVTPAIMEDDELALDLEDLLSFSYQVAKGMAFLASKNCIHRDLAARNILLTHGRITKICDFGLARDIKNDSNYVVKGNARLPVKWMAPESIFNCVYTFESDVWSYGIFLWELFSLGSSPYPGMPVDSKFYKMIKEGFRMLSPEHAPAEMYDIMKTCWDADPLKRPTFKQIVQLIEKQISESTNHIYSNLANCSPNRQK
T4 sequence (Q04759 whole entry): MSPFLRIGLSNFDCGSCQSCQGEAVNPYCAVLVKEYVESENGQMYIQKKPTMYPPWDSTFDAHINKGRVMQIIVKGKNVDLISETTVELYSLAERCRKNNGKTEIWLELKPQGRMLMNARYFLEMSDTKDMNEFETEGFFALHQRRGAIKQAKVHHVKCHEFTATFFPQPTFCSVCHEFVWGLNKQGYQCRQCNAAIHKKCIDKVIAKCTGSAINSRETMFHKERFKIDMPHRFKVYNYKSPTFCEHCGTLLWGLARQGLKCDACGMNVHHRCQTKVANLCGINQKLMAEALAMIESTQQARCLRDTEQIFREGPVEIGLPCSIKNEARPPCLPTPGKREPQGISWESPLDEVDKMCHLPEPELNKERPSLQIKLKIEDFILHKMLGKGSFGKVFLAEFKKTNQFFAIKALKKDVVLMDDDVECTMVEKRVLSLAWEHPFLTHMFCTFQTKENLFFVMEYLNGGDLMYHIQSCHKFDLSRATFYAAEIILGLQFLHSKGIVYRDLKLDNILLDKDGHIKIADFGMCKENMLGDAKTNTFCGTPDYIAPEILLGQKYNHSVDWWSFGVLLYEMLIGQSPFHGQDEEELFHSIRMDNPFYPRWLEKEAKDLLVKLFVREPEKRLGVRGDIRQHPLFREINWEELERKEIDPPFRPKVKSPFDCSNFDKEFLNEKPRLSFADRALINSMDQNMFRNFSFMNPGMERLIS
T5 sequence (Q14289 whole entry): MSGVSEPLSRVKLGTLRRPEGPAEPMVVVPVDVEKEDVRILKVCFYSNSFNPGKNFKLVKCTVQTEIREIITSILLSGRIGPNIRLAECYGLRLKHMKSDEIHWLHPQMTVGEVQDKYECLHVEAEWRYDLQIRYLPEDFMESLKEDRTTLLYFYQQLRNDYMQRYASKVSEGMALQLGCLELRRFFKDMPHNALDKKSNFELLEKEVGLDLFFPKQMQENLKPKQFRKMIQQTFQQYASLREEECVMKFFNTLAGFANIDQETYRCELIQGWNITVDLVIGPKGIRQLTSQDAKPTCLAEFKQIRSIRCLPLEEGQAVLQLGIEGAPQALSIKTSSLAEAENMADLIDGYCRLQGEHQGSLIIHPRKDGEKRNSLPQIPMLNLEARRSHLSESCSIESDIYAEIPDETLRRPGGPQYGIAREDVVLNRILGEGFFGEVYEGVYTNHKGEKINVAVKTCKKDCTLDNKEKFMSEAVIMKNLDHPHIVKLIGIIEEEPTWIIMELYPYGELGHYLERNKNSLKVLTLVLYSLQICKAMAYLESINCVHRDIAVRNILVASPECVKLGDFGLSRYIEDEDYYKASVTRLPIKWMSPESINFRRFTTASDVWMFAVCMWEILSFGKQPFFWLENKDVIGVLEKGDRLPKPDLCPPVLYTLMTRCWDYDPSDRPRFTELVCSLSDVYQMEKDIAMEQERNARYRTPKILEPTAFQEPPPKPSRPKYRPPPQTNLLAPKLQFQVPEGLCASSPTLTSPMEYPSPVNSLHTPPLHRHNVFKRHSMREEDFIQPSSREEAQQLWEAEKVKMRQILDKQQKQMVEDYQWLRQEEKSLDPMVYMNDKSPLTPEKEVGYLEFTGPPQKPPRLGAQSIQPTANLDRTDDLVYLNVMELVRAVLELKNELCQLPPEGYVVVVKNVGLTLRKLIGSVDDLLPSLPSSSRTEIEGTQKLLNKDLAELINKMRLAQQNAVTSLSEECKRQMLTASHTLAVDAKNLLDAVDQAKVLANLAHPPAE
T16 sequence (P07333 20-972): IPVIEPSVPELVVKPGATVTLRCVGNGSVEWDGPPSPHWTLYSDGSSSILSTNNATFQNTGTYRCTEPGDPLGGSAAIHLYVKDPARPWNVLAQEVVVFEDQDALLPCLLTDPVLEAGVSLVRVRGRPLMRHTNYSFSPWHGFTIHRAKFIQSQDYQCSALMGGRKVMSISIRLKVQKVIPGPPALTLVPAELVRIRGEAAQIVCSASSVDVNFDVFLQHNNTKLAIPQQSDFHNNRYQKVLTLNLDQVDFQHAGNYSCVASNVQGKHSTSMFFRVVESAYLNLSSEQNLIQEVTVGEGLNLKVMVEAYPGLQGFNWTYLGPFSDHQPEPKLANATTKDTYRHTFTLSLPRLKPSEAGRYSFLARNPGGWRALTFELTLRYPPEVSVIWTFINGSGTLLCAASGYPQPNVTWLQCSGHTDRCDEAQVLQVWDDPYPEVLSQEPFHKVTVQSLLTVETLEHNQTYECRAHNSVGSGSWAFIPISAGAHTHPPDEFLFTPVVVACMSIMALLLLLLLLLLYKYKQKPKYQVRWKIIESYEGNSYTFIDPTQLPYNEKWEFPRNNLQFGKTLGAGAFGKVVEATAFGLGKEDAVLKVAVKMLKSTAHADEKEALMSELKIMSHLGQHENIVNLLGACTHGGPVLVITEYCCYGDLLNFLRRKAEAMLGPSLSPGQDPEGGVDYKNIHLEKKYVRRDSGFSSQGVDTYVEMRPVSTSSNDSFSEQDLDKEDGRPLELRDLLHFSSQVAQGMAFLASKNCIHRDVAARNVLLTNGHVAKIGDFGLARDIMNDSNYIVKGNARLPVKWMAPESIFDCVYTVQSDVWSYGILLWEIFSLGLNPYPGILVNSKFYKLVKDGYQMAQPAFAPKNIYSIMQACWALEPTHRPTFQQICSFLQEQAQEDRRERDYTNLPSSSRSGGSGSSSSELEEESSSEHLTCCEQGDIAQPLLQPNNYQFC
T11 sequence (Q06187 whole entry): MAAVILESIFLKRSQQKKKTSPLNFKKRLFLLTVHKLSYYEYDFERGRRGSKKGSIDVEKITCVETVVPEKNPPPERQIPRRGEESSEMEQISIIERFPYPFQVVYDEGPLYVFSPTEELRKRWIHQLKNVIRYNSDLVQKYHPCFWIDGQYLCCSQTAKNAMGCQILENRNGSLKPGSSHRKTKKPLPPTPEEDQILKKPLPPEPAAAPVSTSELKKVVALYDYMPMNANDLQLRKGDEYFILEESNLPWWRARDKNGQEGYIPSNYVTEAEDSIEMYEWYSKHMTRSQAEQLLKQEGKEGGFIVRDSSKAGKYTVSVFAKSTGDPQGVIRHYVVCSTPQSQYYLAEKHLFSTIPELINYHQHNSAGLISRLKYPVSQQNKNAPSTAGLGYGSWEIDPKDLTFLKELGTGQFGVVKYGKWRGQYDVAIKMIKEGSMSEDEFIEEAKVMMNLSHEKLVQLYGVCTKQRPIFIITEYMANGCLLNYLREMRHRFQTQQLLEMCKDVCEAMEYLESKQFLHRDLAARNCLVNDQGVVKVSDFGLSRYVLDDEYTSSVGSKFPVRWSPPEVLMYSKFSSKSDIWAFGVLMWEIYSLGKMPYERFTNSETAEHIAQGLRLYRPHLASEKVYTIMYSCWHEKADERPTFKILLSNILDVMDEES

O=C1Nc2ccccc2/C1=C/c1c[nH]c2ncccc12 [Compound P-0069]
≤ 10 µM: [1] | [2] | [3] | [4] | [5] | [6] | [7] | [8]

CC(=O)Nc1cccc(-c2ccnc3[nH]ccc23)c1 [Compound P-0030]
≤ 10 µM: [2] | [3] | [4] | [7] | [9]

O=C(c1ccc(O)cc1Cl)c1c[nH]c2ncc(-c3cccs3)cc12 [Compound P-0112]
≤ 10 µM: [10] | [11] | [12] | [13] | [14] | [15] | [16] | [17] | [18] | [19] | [2] | [3] | [4] | [5] | [20] | [21] | [22]
